Data from patent US5744621A, “Irreversible HIV protease inhibitors, intermediates, compositions and processes for the preparation thereof” (Lucky Limited., priority 1992, dated 1998).
Where two headings read alike, the source gives them in different places.

Key:
H9 cell or Sup T1 cell = test: Cytotoxicity in H9 or Sup T1 cells (trypan blue dye exclusion); assay type: cell-based; conditions: human, h9 or sup t1 cells
Description: (§1) To determine the cytotoxicity of the compounds of the present invention, 0.1 μM to 100 μM of the novel compounds were added to H9 cell or Sup T1 cell and the mixture was cultured on a rpmi-1640 medium at 37° C. The medium was refreshed every 3 days and the extent of cell proliferation was observed using Hemacytometer according to the trypan blue dye exclusion technique which is well known in the art. CT50 (i.e., concentration that causes death of cells by 50%) was determined. For reference, AZT(Burrows-Wellcome), A-75925 (Abbott, C2 symmetric compound) and Ro-31-8959(F. Hofmann-La Roche) were used as control compounds.

HIV-1 = test: Anti-viral activity: syncytium formation (Sup T1) or reverse transcriptase assay (H9); assay type: cell-based
Description: The anti-viral activity of the compounds of the present invention was determined by measuring the concentration of the compounds that inhibits the proliferation of HIV by 50%(IC50) through a survey for syncytium formation or reverse transcriptase assay.
1×10^5 cells of each of H9(ATCC HTB 176) and Sup T1 cell lines were added to the wells of a 24-well microtiter plate and various concentrations so the compounds of the present invention were added thereto. 200 TCID50 (200-fold of 50% tissue culture infection dose) of HIV-1 inoculum and rpmi-1640 medium(Sigma Chemical Co., U.S.A) were added successively to the wells and the plate was incubated at 37° C. In case of Sup T1, the number of syncytium formed was investigated after 3 to 9 days. IC50 of each compound was determined by measuring the concentration of inhibitor that can reduce the number of syncytium by 50% compared with those formed in the same condition without the inhibitor.
In case of H9, three-quarters(3/4) of the culture medium in volume was refreshed every 3 days; and 6 ml of the culture fluid was centrifuged at 1000 rpm for 10 minutes. To 5 ml of the resulting supernatant were added 2.5 ml of 30% polyethyleneglycol(PEG, M.W. 6000-8000) and 0.4M NaCl. The resulting solution was allowed to stand at 0° C. overnight to precipitate virus particles. The solution was centrifuged at 2000 rpm for 45 minutes, the supernatant was discarded therefrom and the precipitate was diluted with 20 μl of a reverse transcriptase suspension buffer(50 mM tris-HCl, pH 7.5, 1 mM dithiothreitol, 20% glycerol, 0.25M KCl and 0.25% Triton X-100). The resulting suspension was stored in an Effendorf tube at -70° C. until used. A procedure of freezing said virus suspension for 2 minutes in dry ice and thawing same at 37° C. for 2 minutes was repeated three times and the resulting suspension was centrifuged at 4° C. The resulting supernatant was used in carrying out the reverse transcriptase assay.
10 μl of the said viral suspension was added to a solution of: 10 μl of buffer solution(250 mM tris-HCl, pH 7.5, 37.5 mM MgCl2, 0.25% triton X-100), 1.2 μl of 200 mM dithiothreitol, 5 μl of 10 μM oligo(dT)-poly(A)(Boeringer Manheim, 12-18 oligomer), 1 μl(1 μCi) of ^3 H-TTP(Thymidinetri-phosphate) and 23.6 μl of water; and the resulting mixture was placed at 37° C. After 1 hour, the mixture was poured onto a WHATMAN DEB1 filter and the filter was washed three times with 5 ml of 2×SSC buffer solution(17.53 g of sodium chloride, 8.82 g of sodium citrate, pH 7.0, 1 liter of water) for about 10 minutes each time and twice with 95% ethanol for 10 seconds. The filter was put onto aluminium foil and dried with an infra-red lamp. The amount of radioactivity was counted using a liquid scintillation counter. IC50 of each compound was determined by measuring the concentration of inhibitor that can reduce the activity of reverse transcriptase by 50%.

[1] = Cytotoxicity in H9 or Sup T1 cells (trypan blue dye exclusion); assay type: cell-based; conditions: human
Description: as §1

HIV-1 protease = biological target: T1, HIV-1 protease (Human immunodeficiency virus type 1 group M subtype B, UniProt P04585); test: Assay for inhibitory effect on HIV protease (residual enzyme activity, HPLC of substrate cleavage); assay type: biochemical
T1 construct: 2.6 nM of HIV-1 protease
Outline: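 HIV-1 protease (2.6 nM) incubated with inhibitor in 50 mM sodium acetate pH 5.5, 1 mM DTT, 1 mM EDTA, 0.75 M ammonium sulfate, 0.2 M NaCl, 0.1% NP40. Residual activity was sampled over time using 100 μM p-NO2-Phe undecapeptide substrate (KM 20 μM), HPLC, 280 nm. kobs came from ln(activity)-versus-time slope, and KI and kina from kinetic fitting.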

[2] = concentration that causes death of cells by 50%, H9 or Sup T1 cells, 37° C, read-out: CT50 (the source's name)
[3] = HIV-1 protease 2.6 nM, pH 5.5, inhibition constant
[4] = HIV-1 protease 2.6 nM, pH 5.5, rate constant of covalent bond formation, read-out: kina (converted)
[5] = second order rate constant, HIV-1 protease, pH 5.5, read-out: kina /KI (converted)
[6] = Human immunodeficiency virus 1, SUP-T1

SMILES | CC50 (H9 cell or Sup T1 cell) | IC50 (HIV-1; inhibits proliferation of HIV by 50%, Sup T1 syncytium or H9 reverse transcriptase assay, 37° C, read-out: IC50) | CC50 [1, 2] | Ki (HIV-1 protease; [3]) | kinact (HIV-1 protease; [4]) | kinact/KI (HIV-1 protease; [5]) | IC50 (HIV-1; [6]) | CC50 ([1]; h9 or sup t1 cells) | Ki (HIV-1 protease) | kinact (HIV-1 protease; pH 5.5, read-out: kina) | kinact/KI (HIV-1 protease; pH 5.5, read-out: kina /KI)
CC(C)[C@H](NC(=O)OCc1ccccc1)C(=O)N[C@@H](Cc1ccccc1)[C@@H](O)[C@H](O)[C@H](Cc1ccccc1)NC(=O)[C@@H](NC(=O)OCc1ccccc1)C(C)C [A-75925, reference compound] | > 100000 nM | 250 nM | – | – | – | – | – | – | – | – | –
COC(=O)C(CCC(N)=O)NC(=O)C[C@@H]1O[C@@H]1[C@H](Cc1ccccc1)NC(=O)[C@H](CC(N)=O)NC(=O)c1ccc2ccccc2n1 (stereo partly shown) [compound 12] | – | – | > 100000 nM | 370 nM | 0.005 s⁻¹ | 13500 M⁻¹ s⁻¹ | 7000 nM | – | – | – | –
COC(=O)C(Cc1ccccc1)NC(=O)C(CCC(N)=O)NC(=O)C[C@@H]1O[C@@H]1[C@H](Cc1ccccc1)NC(=O)[C@H](CC(N)=O)NC(=O)c1ccc2ccccc2n1 (stereo partly shown) [compound 14] | – | – | > 100000 nM | 350 nM | 0.00417 s⁻¹ | 11800 M⁻¹ s⁻¹ | 9000 nM | – | – | – | –
NC(=O)C[C@H](NC(=O)OCc1ccccc1)C(=O)NC[C@@H]1O[C@@H]1[C@H](CC1CCCCC1)NC(=O)[C@H](CC(N)=O)NC(=O)OCc1ccccc1 [compound 85] | – | – | – | > 10000 nM | – | – | 5000 nM | > 100000 nM | – | – | –
CC[C@H](C)[C@H](NC(=O)C[C@@H]1O[C@@H]1[C@H](Cc1ccccc1)NC(=O)[C@H](CC(N)=O)NC(=O)c1ccc2ccccc2n1)C(=O)NCc1ccccc1 [compound 8] | – | – | > 100000 nM | 60 nM | 0.002 s⁻¹ | 33300 M⁻¹ s⁻¹ | 7000 nM | – | – | – | –
CC(C)[C@H](NC(=O)C[C@@H]1O[C@@H]1[C@H](Cc1ccccc1)NC(=O)[C@H](CC(N)=O)NC(=O)c1ccc2ccccc2n1)C(=O)NCc1ccccn1 [compound 19] | – | – | > 100000 nM | 81 nM | 0.00367 s⁻¹ | 45000 M⁻¹ s⁻¹ | 5000 nM | – | – | – | –
CC(C)[C@H](NC(=O)OCc1ccccc1)C(=O)NC[C@@H]1O[C@@H]1[C@H](Cc1ccccc1)NC(=O)[C@@H](NC(=O)OCc1ccccc1)C(C)C [compound 71, 4S-1,4-bis[N-(N'-benzyloxycarbonyl-L-valinyl)amino]-5-phenyl-(2S,3R)-(Z)-epoxypentane] | – | – | > 100000 nM | – | – | – | 80 nM | – | 0.18 nM | 0.00233 s⁻¹ | 1.28e+06 M⁻¹ s⁻¹
CC(C)(C)OC(=O)NC[C@@H]1O[C@@H]1[C@H](Cc1ccccc1)NC(=O)[C@H](CC(N)=O)NC(=O)c1ccc2ccccc2n1 [compound 83] | – | – | > 10000 nM | 400 nM | 0.02 s⁻¹ | 50000 M⁻¹ s⁻¹ | 750 nM | – | – | – | –
NC(=O)C[C@H](NC(=O)COc1cccc2ccccc12)C(=O)N[C@@H](Cc1ccccc1)[C@H]1O[C@H]1CCc1ccccc1 [compound 61, 2-L-(N-1-naphthoxyacetyl-L-asparaginyl)amino-(3R,4S)-epoxy-1,6-diphenylhexane] | – | – | > 100000 nM | 250 nM | 0.0005 s⁻¹ | 2000 M⁻¹ s⁻¹ | 1000 to 2000 nM | – | – | – | –
CC(C)[C@@H](CCCc1ccccc1)NC(=O)C[C@@H]1O[C@@H]1[C@H](Cc1ccccc1)NC(=O)[C@H](CC(N)=O)NC(=O)c1ccc2ccccc2n1 [compound 50] | – | – | > 100000 nM | 950 nM | 0.025 s⁻¹ | 26700 M⁻¹ s⁻¹ | > 5000 nM | – | – | – | –
COC(=O)C(CCC(N)=O)NC(=O)C[C@@H]1O[C@@H]1[C@H](Cc1ccccc1)NC(=O)[C@H](CC(N)=O)NC(=O)OCc1ccccc1 (stereo partly shown) [compound 13] | – | – | > 100000 nM | 520 nM | 0.00717 s⁻¹ | 13800 M⁻¹ s⁻¹ | 10000 nM | – | – | – | –
CC[C@H](C)[C@H](NC(=O)C[C@@H]1O[C@@H]1[C@H](Cc1ccccc1)NC(=O)[C@H](CC(N)=O)NC(=O)c1ccc2ccccc2n1)C(=O)N[C@H](C(=O)OC)C(C)C [compound 6] | – | – | > 100000 nM | 420 nM | 0.00217 s⁻¹ | 5170 M⁻¹ s⁻¹ | 5000 nM | – | – | – | –
CC[C@H](C)[C@H](NC(=O)C[C@@H]1O[C@@H]1[C@H](Cc1ccccc1)NC(=O)[C@H](CC(N)=O)NC(=O)c1ccc2ccccc2n1)C(=O)NCc1ccccn1 [compound 9] | – | – | > 100000 nM | 55 nM | 0.00183 s⁻¹ | 33300 M⁻¹ s⁻¹ | 8000 nM | – | – | – | –
CC(C)[C@H](Cc1ccccc1)NC(=O)C[C@@H]1O[C@@H]1[C@H](Cc1ccccc1)NC(=O)[C@H](CC(N)=O)NC(=O)c1ccc2ccccc2n1 [compound 42, [[(5S)-[N-(2-quinolinecarbonyl)-L-asparaginyl]amino]-(4R,3S)-epoxy-6-phenyl-1-hexanoyl]-[(2S)-[1-phenyl-3-methyl]butyl]amide] | – | – | > 100000 nM | 0.8 nM | 0.0433 s⁻¹ | 5.5e+07 M⁻¹ s⁻¹ | 20 nM | – | – | – | –
CC(C)[C@H](CCCc1ccccc1)NC(=O)C[C@@H]1O[C@@H]1[C@H](Cc1ccccc1)NC(=O)[C@H](CC(N)=O)NC(=O)c1ccc2ccccc2n1 [compound 45] | – | – | > 100000 nM | 1.2 nM | 0.04 s⁻¹ | 3.33e+07 M⁻¹ s⁻¹ | 200 nM | – | – | – | –
